Laboratory results from patent US20260234188A1, “CHEMOKINE-BINDING PEPTIDES” (Oxford University Innovation Limited, priority 2022, published 2026).
Entries after “also recorded” stand apart in the source; their conditions may differ.

Key:
[1] = tested on: panel of 25 biotinylated chemokines (15 CC-class chemokines, 10 CXC-class chemokines); experiment: Phage-display screen of HD845 NNK mutagenesis library; format: binding, human; conditions: for peak log 2 E: best mutation at each residue
Procedure: NNK mutagenesis library construction and screening was performed for the HD845 peptide using the methods described in Example 19. […] Following library selection with each chemokine, the enrichment (E) of each peptide was calculated in comparison to the input library, and expressed the enrichment as log 2 E, as this metric is correlated with binding affinity.
A two-pronged strategy was used to identify individual peptides with mutations that improve chemokine binding over the parental peptide HD845. To identify mutations that improve overall chemokine binding affinity, the best performing mutations were selected at each residue by their enhancement of mean log 2 E (FIG. 27A). To add in mutations that improve chemokine binding diversity, the best performing mutations at each residue were identified by their enhancement of peak log 2 E (FIG. 27B).

[2] = tested on: panel of 24 biotinylated chemokines; experiment: Phage-display screen of HD2 NNK saturation mutagenesis library; format: binding, human; conditions: for Chemokines Bound log2E 1-5 / Chemokines Bound log2E > 5: HD2 saturation mutants, chemokines on streptavidin beads, UniProt entry names; for peak log 2 E: best mutation at each residue
Text: (§1) FIG. 7. Exemplar results from phage display screens using saturation mutagenesis. A phage-display library was constructed using the HD2 sequence, replacing each residue encoding codon with the degenerate sequence NNK. The 16 degenerate sequences (which also encoded the parental HD2 sequence) were pooled and cloned into display phage. […] Exemplar peptides were selected such that log 2 E for at least one chemokine was greater than 5, and log 2 E for binding to control (CO5, was less than zero). […] The fold enrichment of parental HD2 is also indicated.
as §1, with “A” for “FIG. 7. Exemplar results from phage display screens using saturation mutagenesis. A”
A molecular level understanding of binding mechanism is needed for development of peptides as therapeutics and is usually obtained from structural analyses. As HD2 binds many chemokines this becomes a challenging task, and we explored if we could elucidate this using phage display mutagenesis. The role of each residue in HD2 for binding was examined in phage-display. A library of HD2 mutations that had NNK substituted at each residue and performed phage-display selection against a panel of 24 biotinylated chemokines, in parallel, as described in Example 7. This strategy allowed us to evaluate the impact not only of Ala substitutions, but also conservative, hydrophilic and hydrophobic substitutions, and compare with binding of parental HD2 which is also included in the library. Ala substitution removes side-chains beyond the β-carbon and can be used to infer the role of side-chain functional groups without affecting conformational flexibility of the backbone. […] These residues are within the two motifs identified previously. Other notable residues identified were Y8 and P10. We next judged the impact of Ala mutation by calculating the change in log 2 E (Δlog 2 E) between the mutant and parental HD2. A positive value of Δlog 2 E indicates increased binding, and a negative value decreased binding compared to parental HD2. […] As may be seen, the log 2 E for the parental HD2 was ~0 in these analyses indicating lack of enrichment.
Oligonucleotide pools were amplified using primers: oligo_fwd: 5′-[…] and oligo_rev2: 5′-tcgtcaccctcggcgcctcctcoggatcctccacc. Oligonucleotide PCR products were cloned into plasmid prSTOP4Nsi using NEB Builder HiFi Assembly following instructions of the manufacturer. The vector pool was used to transform electrocompetent Invitrogen ElectroMAX™ DH5α-E™ cells. Plasmid DNA was harvested by MaxiPrep (GeneJet Plasmid Maxiprep Kit) and was transformed into SS320 phage display electrocompetent cells (Lucigen), following the manufacturer's protocol, resuspended in 950 μL recovery media for each electroporation, transferred to 50 mL Falcon tubes, 100 μL 1011 CFU/mL M13KO7 helper phage (NEB) added and shaken at 37° C., 220 RPM for 1 h. 1 mL recovery culture was added to 2YT medium containing +50 ug/mL carbenicillin and 25 ug/mL kanamycin, and grown overnight at 37C, 220 rpm. Phage was precipitated from the culture supernatant by adding 22.5 mL of supernatant to 4.5 mL 20% PEG 8000/2.5 M NaCl, incubating on ice for 30 min, and centrifuging at 10,000 RPM, 4° C. for 10 min, and resuspending phage in 1 ml of PBT, followed by centrifugation at 13000 RPM, 4° C., for 10 min. […]

| Sequence | Chemokines Bound log2E 1-5 [2] | Chemokines Bound log2E > 5 [2] | also measured |
| --- | --- | --- | --- |
| EDEDYFDFFKPVTCYF [E6F] |  |  | mean log 2 E compared to parental HD845 ([1]; over CC chemokines): significant improvement |
| EEDDYTAYAPLVCYFT [HD2_V12] | CCL18, CCL25, CCL28, CCL4,; also recorded: CCL8, X3CL1, CXL10, SDF1,; also recorded: CXL13, CXL14 | CCL19 |  |
| EDDDYTAYAPLTCYFT [E2D] |  |  | mean log 2 E compared to parental HD2 ([2]; over all chemokines): enhancement over the parental that was not statistically significant |
| EEDDYTAYAPVTCYFT [HD2_V11] | CCL1, CCL11, CCL15, CCL18,; also recorded: CCL2, CCL22, CCL28, CCL3,; also recorded: CCL4, CCL5, CCL8, CXL10,; also recorded: CXL11, CXL13 | CCL17 |  |
| EEDDYTAYAPYTCYFT [HD2_Y11] | CCL1, CCL11, CCL15, CCL17,; also recorded: CCL18, CCL19, CCL2, CCL20,; also recorded: CCL3, CCL4, CCL5, CCL8, X3CL1,; also recorded: CXL11, CXL13, CXL14 | CCL22 |  |
| EEDDYTDYAPLTCYFT [HD2_D7] | CCL1, CCL11, CCL15, CCL17, and CCL18, CCL19, CCL2, CCL22, and CCL28, CCL3, CCL4, CCL5, CCL8, and X3CL1, CXL10, CXL11, CXL14, and IL8 | SDF1, CXL13 | mean log 2 E compared to parental HD2 ([2]; over all chemokines): significant improvement |
| DEDDYTAYAPLTCYFT [E1D] |  |  | mean log 2 E compared to parental HD2 ([2]; over all chemokines): enhancement over the parental that was not statistically significant |
| EEDDYSAYAPLTCYFT [HD2_S6] | CCL11, CCL15, CCL17, CCL18,; also recorded: CCL2, CCL22, CCL4, CCL5, CCL8,; also recorded: X3CL1, CXL10, SDF1, CXL13, IL8 | CCL1, CCL3 |  |
| EDEDYEDFFAPVTCYF [K10A] |  |  | peak log 2 E [1]: highest peak log 2 E at that residue; mean log 2 E compared to parental HD845 ([1]; over CC chemokines): significant improvement; mean log 2 E compared to parental HD845 ([1]; over all chemokines): significant improvement |
| EEDDYTAYAPLTSYFT [HD901] |  |  | effect on Δlog 2 E ([2]; conservative residue substitutions (Dayhoff PAM250), mutant versus parental HD2): significant deleterious effect |
| EEDDYTAYAPQTCYFT [HD2_Q11] | CCL1, CCL11, CCL15, CCL18,; also recorded: CCL22, CCL4, CCL5, CCL8 | CCL17 |  |
| EEDDYTAYAPLICYFT [HD2_112] | CCL18, CCL25, CCL28, CCL4,; also recorded: X3CL1, CXL10, SDF1, CXL13,; also recorded: CXL14 | CCL19 | peak log 2 E [2]: highest peak log 2 E at that residue |
| EEDDYTAYAPFTCYFT [HD2_F11] | CCL18, CXL11, CXL13, CXL14 | CCL20 |  |
| EEDDYTEYAPLTCYFT [HD2_E7] | CCL1, CCL11, CCL15, CCL18,; also recorded: CCL2, CCL22, CCL28, CCL3,; also recorded: CCL4, CCL5, CCL8, X3CL1,; also recorded: CXL10, CXL14, IL8 | SDF1, CXL13 |  |
| EEDDYTAYAPLHCYFT [HD2_H12] | CCL15, CCL28, CCL4, CCL5 | CCL22 |  |
| EEEDYTAYAPLTCYFT [HD2_E3] | CCL8, X3CL1; also recorded: CCL1, CCL11, CCL15, CCL17,; also recorded: CCL18, CCL22, CCL4, CCL5, | CCL3 |  |
| EEDDYTAYAPTTCYFT [HD2_T11] | CCL11, CCL17, CCL18, CCL22,; also recorded: CCL4, CCL5, CCL8 | CCL15 |  |
| EEDDYEAYAPLTCYFT [HD2_E6] | CCL1, CCL11, CCL15, CCL17,; also recorded: CCL18, CCL19, CCL2, CCL22,; also recorded: CCL28, CCL3, CCL4, CCL5, CCL8,; also recorded: X3CL1, CXL10, CXL11, CXL14 | SDF1, CXL13 |  |
| EDEDYWDFFKPVTCYF [E6W] |  |  | peak log 2 E [1]: highest peak log 2 E at that residue; mean log 2 E compared to parental HD845 ([1]; over XC chemokines): significant improvement; mean log 2 E compared to parental HD845 ([1]; over all chemokines): significant improvement |
| EEDDYTAYAPLTCYFD [HD2_D16] | CCL1, CCL11, CCL17, CCL18,; also recorded: CCL2, CCL22, CCL3, CCL4, CCL5,; also recorded: CCL8, X3CL1, CXL10, CXL11,; also recorded: CXL13, CXL14 | SDF1 |  |
| EEDDYTAYADLTCYFT [HD2_D1C] |  | CXL11 | peak log 2 E [2]: highest peak log 2 E at that residue |
| EEDDYTWYAPLTCYFT [A7W] |  |  | mean log 2 E compared to parental HD2 ([2]; over XC (CXC/CX3C) chemokines): significant improvement |
